Results: paper PMC5224920, “Assessing the mechanism and therapeutic potential of modulators of the human Mediator complex-associated protein kinases” (eLife, 2016)

Tested on: 12 single or co-culture in vitro tissue models of primary cells
Assay: Culture/co-culture cell model panel, extracellular biomarkers (DiscoveRx); as to CCL2/MCP-1: reference of the scale not given here; as to CD141/Thrombomodulin: reference of the scale not given here; as to CD142/Tissue Factor: reference of the scale not given here; as to CD38: reference of the scale not given here; as to CD40: reference of the scale not given here; as to CD69: reference of the scale not given here; as to CXCL8/IL-8: reference of the scale not given here; as to CXCL9/MIG: reference of the scale not given here; as to IL-1alpha: reference of the scale not given here; as to M-CSF: reference of the scale not given here; as to SRB: reference of the scale not given here; as to sPGE2: reference of the scale not given here; as to sTNF-alpha: reference of the scale not given here
Type: cell-based, human
[1] = HDF3CGF stimulated fibroblasts, 4.12E1 nM
[2] = HDF3CGF stimulated fibroblasts, 4.57E0 nM
[3] = HPNo Huvec+PBMC unstimulated, 1.00E4 nM
[4] = HPNo Huvec+PBMC unstimulated, 1.11E3 nM
[5] = HPNo Huvec+PBMC unstimulated, 1.23E2 nM
[6] = HPNo Huvec+PBMC unstimulated, 1.37E1 nM
[7] = HPNo Huvec+PBMC unstimulated, 3.33E3 nM
[8] = HPNo Huvec+PBMC unstimulated, 3.70E2 nM
[9] = HPNo Huvec+PBMC unstimulated, 4.12E1 nM
[10] = HPNo Huvec+PBMC unstimulated, 4.57E0 nM

`Cc1n[nH]c2ncc(C(=O)N3CCC[C@H]3c3ccc(Cl)cc3)cc12` [CMPD4] was tested, and the CXCL9/MIG [1] was -0.024, the CXCL10/IP-10 [1] was 0.059 and the CXCL11/I-TAC [1] was -0.035. The “Collagen I” value [1] was 0.021, the “Collagen III” value [1] was 0.082 and the EGFR [1] was -0.094. It also gave a M-CSF [1] of -0.046, an MMP-1 [1] of -0.00129 and a PAI-I [1] of 0.033. The Proliferation_72hr [1] was -0.178, the SRB [1] was 0.010 and the TIMP-1 [1] was -0.070. For the same compound, the TIMP-2 [1] was 0.099, the CCL2/MCP-1 [2] was -0.020 and the CD54/ICAM-1 [2] was -0.041. It also gave a CD106/VCAM-1 [2] of 0.047, a CXCL8/IL-8 [2] of -0.013 and a CXCL9/MIG [2] of 0.00852. For the same compound, the CXCL10/IP-10 [2] was 0.000432, the CXCL11/I-TAC [2] was -0.0056 and the “Collagen I” value [2] was 0.023. For the same compound, the “Collagen III” value [2] was 0.081, the EGFR [2] was -0.043 and the M-CSF [2] was -0.051. For the same compound, the MMP-1 [2] was 0.013, the PAI-I [2] was -0.032 and the Proliferation_72hr [2] was -0.119. It also gave an SRB [2] of 0.018, a TIMP-1 [2] of -0.010 and a TIMP-2 [2] of 0.136. For the same compound, the CCL2/MCP-1 [3] was 0.039, the CD38 [3] was 0.081 and the CD40 [3] was -0.033. The CD106/VCAM-1 [3] was 0.342, the CD141/Thrombomodulin [3] was 0.00066 and the “CD142/Tissue Factor” value [3] was 0.063. It also gave a CCL2/MCP-1 [4] of 0.053, a CD38 [4] of -0.040 and a CD40 [4] of -0.130. For the same compound, the CD106/VCAM-1 [4] was 0.396, the CD141/Thrombomodulin [4] was 0.021 and the “CD142/Tissue Factor” value [4] was 0.064. For the same compound, the CCL2/MCP-1 [5] was 0.040, the CD38 [5] was -0.022 and the CD40 [5] was -0.171. The CD106/VCAM-1 [5] was 0.307, the CD141/Thrombomodulin [5] was 0.025 and the “CD142/Tissue Factor” value [5] was 0.061. The CCL2/MCP-1 [6] was 0.053, the CD38 [6] was -0.066 and the CD40 [6] was -0.106. For the same compound, the CD106/VCAM-1 [6] was 0.175, the CD141/Thrombomodulin [6] was 0.022 and the “CD142/Tissue Factor” value [6] was 0.010. It also gave a CCL2/MCP-1 [7] of 0.058, a CD38 [7] of 0.024 and a CD40 [7] of -0.093. The CD106/VCAM-1 [7] was 0.305, the CD141/Thrombomodulin [7] was 0.019 and the “CD142/Tissue Factor” value [7] was 0.022. The CCL2/MCP-1 [8] was 0.274, the CD38 [8] was -0.028 and the CD40 [8] was -0.186. The CD106/VCAM-1 [8] was 0.375, the CD141/Thrombomodulin [8] was 0.045 and the “CD142/Tissue Factor” value [8] was 0.045. It also gave a CCL2/MCP-1 [9] of 0.148, a CD38 [9] of -0.052 and a CD40 [9] of -0.089. For the same compound, the CD106/VCAM-1 [9] was 0.250, the CD141/Thrombomodulin [9] was 0.031 and the “CD142/Tissue Factor” value [9] was 0.096. The CCL2/MCP-1 [10] was -0.076, the CD38 [10] was -0.060 and the CD40 [10] was -0.075. For the same compound, the CD106/VCAM-1 [10] was 0.144, the CD141/Thrombomodulin [10] was 0.022 and the “CD142/Tissue Factor” value [10] was 0.017. It also gave a CD62E/E-Selectin (HPNo, 1.00E4 nM) of 0.080, a CD69 (HPNo, 1.00E4 nM) of 0.150 and a CXCL8/IL-8 (HPNo, 1.00E4 nM) of 0.030. The CXCL9/MIG (HPNo, 1.00E4 nM) was -0.025, the M-CSF (HPNo, 1.00E4 nM) was 0.075 and the SRB (HPNo, 1.00E4 nM) was -0.053. For the same compound, the sPGE2 (HPNo, 1.00E4 nM) was 0.066, the sTNF-alpha (HPNo, 1.00E4 nM) was -0.036 and the CD62E/E-Selectin (HPNo, 1.11E3 nM) was 0.014. It also gave a CD69 (HPNo, 1.11E3 nM) of 0.063, a CXCL8/IL-8 (HPNo, 1.11E3 nM) of -0.048 and a CXCL9/MIG (HPNo, 1.11E3 nM) of -0.091. For the same compound, the M-CSF (HPNo, 1.11E3 nM) was 0.074, the SRB (HPNo, 1.11E3 nM) was -0.034 and the sPGE2 (HPNo, 1.11E3 nM) was 0.043. It also gave a sTNF-alpha (HPNo, 1.11E3 nM) of -0.019, a CD62E/E-Selectin (HPNo, 1.23E2 nM) of -0.027 and a CD69 (HPNo, 1.23E2 nM) of 0.039. It also gave a CXCL8/IL-8 (HPNo, 1.23E2 nM) of 0.011, a CXCL9/MIG (HPNo, 1.23E2 nM) of -0.025 and a M-CSF (HPNo, 1.23E2 nM) of -0.084. The SRB (HPNo, 1.23E2 nM) was -0.005, the sPGE2 (HPNo, 1.23E2 nM) was 0.030 and the sTNF-alpha (HPNo, 1.23E2 nM) was 0.010. The CD62E/E-Selectin (HPNo, 1.37E1 nM) was -0.035, the CD69 (HPNo, 1.37E1 nM) was -0.005 and the CXCL8/IL-8 (HPNo, 1.37E1 nM) was -0.023. It also gave a CXCL9/MIG (HPNo, 1.37E1 nM) of -0.068, a M-CSF (HPNo, 1.37E1 nM) of 0.015 and an SRB (HPNo, 1.37E1 nM) of 0.027. It also gave a sPGE2 (HPNo, 1.37E1 nM) of 0.00254, a sTNF-alpha (HPNo, 1.37E1 nM) of 0.00645 and a CD62E/E-Selectin (HPNo, 3.33E3 nM) of -0.020. For the same compound, the CD69 (HPNo, 3.33E3 nM) was 0.040, the CXCL8/IL-8 (HPNo, 3.33E3 nM) was -0.040 and the CXCL9/MIG (HPNo, 3.33E3 nM) was 0.018. The M-CSF (HPNo, 3.33E3 nM) was 0.034, the SRB (HPNo, 3.33E3 nM) was -0.058 and the sPGE2 (HPNo, 3.33E3 nM) was 0.038. It also gave a sTNF-alpha (HPNo, 3.33E3 nM) of -0.021, a CD62E/E-Selectin (HPNo, 3.70E2 nM) of 0.026 and a CD69 (HPNo, 3.70E2 nM) of 0.012. For the same compound, the CXCL8/IL-8 (HPNo, 3.70E2 nM) was -0.025, the CXCL9/MIG (HPNo, 3.70E2 nM) was -0.067 and the M-CSF (HPNo, 3.70E2 nM) was -0.063. It also gave an SRB (HPNo, 3.70E2 nM) of -0.017, a sPGE2 (HPNo, 3.70E2 nM) of 0.040 and a sTNF-alpha (HPNo, 3.70E2 nM) of -0.022. For the same compound, the CD62E/E-Selectin (HPNo, 4.12E1 nM) was -0.00169, the CD69 (HPNo, 4.12E1 nM) was 0.020 and the CXCL8/IL-8 (HPNo, 4.12E1 nM) was 0.023. It also gave a CXCL9/MIG (HPNo, 4.12E1 nM) of -0.041, a M-CSF (HPNo, 4.12E1 nM) of -0.031 and an SRB (HPNo, 4.12E1 nM) of -0.00266. For the same compound, the sPGE2 (HPNo, 4.12E1 nM) was 0.016, the sTNF-alpha (HPNo, 4.12E1 nM) was 0.015 and the CD62E/E-Selectin (HPNo, 4.57E0 nM) was 0.045. For the same compound, the CD69 (HPNo, 4.57E0 nM) was 0.075, the CXCL8/IL-8 (HPNo, 4.57E0 nM) was 0.031 and the CXCL9/MIG (HPNo, 4.57E0 nM) was -0.000203. For the same compound, the M-CSF (HPNo, 4.57E0 nM) was 0.012, the SRB (HPNo, 4.57E0 nM) was 0.035 and the sPGE2 (HPNo, 4.57E0 nM) was 0.00462. For the same compound, the sTNF-alpha (HPNo, 4.57E0 nM) was 0.128, the CCL2/MCP-1 (LPS Huvec+PBMC, 1.00E4 nM) was -0.081 and the CD40 (LPS Huvec+PBMC, 1.00E4 nM) was -0.109. It also gave a CD62E/E-Selectin (LPS Huvec+PBMC, 1.00E4 nM) of 0.010, a CD69 (LPS Huvec+PBMC, 1.00E4 nM) of 0.030 and a CD106/VCAM-1 (LPS Huvec+PBMC, 1.00E4 nM) of 0.079. The CD141/Thrombomodulin (LPS Huvec+PBMC, 1.00E4 nM) was 0.127, the “CD142/Tissue Factor” value (LPS Huvec+PBMC, 1.00E4 nM) was 0.079 and the CXCL8/IL-8 (LPS Huvec+PBMC, 1.00E4 nM) was -0.169. For the same compound, the IL-1alpha (LPS Huvec+PBMC, 1.00E4 nM) was 0.125, the M-CSF (LPS Huvec+PBMC, 1.00E4 nM) was 0.029 and the SRB (LPS Huvec+PBMC, 1.00E4 nM) was -0.141. It also gave a sPGE2 (LPS Huvec+PBMC, 1.00E4 nM) of 0.164, a sTNF-alpha (LPS Huvec+PBMC, 1.00E4 nM) of -0.051 and a CCL2/MCP-1 (LPS Huvec+PBMC, 1.11E3 nM) of -0.044. It also gave a CD40 (LPS Huvec+PBMC, 1.11E3 nM) of -0.137, a CD62E/E-Selectin (LPS Huvec+PBMC, 1.11E3 nM) of 0.000345 and a CD69 (LPS Huvec+PBMC, 1.11E3 nM) of 0.043. For the same compound, the CD106/VCAM-1 (LPS Huvec+PBMC, 1.11E3 nM) was 0.105, the CD141/Thrombomodulin (LPS Huvec+PBMC, 1.11E3 nM) was 0.090 and the “CD142/Tissue Factor” value (LPS Huvec+PBMC, 1.11E3 nM) was 0.097. The CXCL8/IL-8 (LPS Huvec+PBMC, 1.11E3 nM) was -0.191.
